# From patent publication US20030022906A1, “Use of pde v inhibitors” (priority 2000, published 2003)
# What was measured:
# [1] = test system: spontaneously hypertensive rats; test: Nitrate interaction in spontaneously hypertensive rats; assay type: in vivo, rat; conditions: i.v. cumulative 0.1, 0.3, 1, 3 or 10 mg/kg; infusion of isosorbitol dinitrate 100 μg/kg of body weight/hour
# Description: Nitrate Interaction in Spontaneously Hypertensive Rats
# Method: surgical instrumentation and measurement of blood pressure and heart rate after intravenous cumulative administration of either EMD 221829 or sildenafil (0.1, 0.3, 1, 3 or 10 mg/kg of body weight) with simultaneous infusion of isosorbitol dinitrate (100 μg/kg of body weight/hour).
# [2] = test system: spontaneously hypertensive rats; test: Telemetric measurements of blood pressure and heart rate over 24 hours in spontaneously hypertensive rats; assay type: in vivo, rat; conditions: 3, 10 and 30 mg/kg p.o.; telemetry over 24 hours
# Description: Telemetric Measurements of Blood Pressure and Heart Rate Over 24 Hours in Spontaneously Hypertensive Rats
# Measurements of 3, 10 and 30 mg of substance/1 kg of body weight/p.o.
# [3] = test system: anaesthetized dogs with open thorax; test: Haemodynamics in anaesthetized dogs with open thorax; assay type: in vivo, dog
# From the text: (§1) All dose amounts are i.d. (intraduodenal), unless stated otherwise.
# [4] = test system: anaesthetized dogs with open thorax; test: Nitrate interaction in anaesthetized dogs with open thorax (i.v. infusion of isosorbitol dinitrate); assay type: in vivo, dog; conditions: i.d., permanent i.v. infusion of isosorbitol dinitrate 50 μg/kg of body weight/hour
# Description: Investigations of Nitrate Interaction of EMD 221829 and Sildenafil
# The model and administration are as in B, but both test substances are administered with simultaneous permanent i.v. infusion of isosorbitol dinitrate (50 μg/kg of body weight/hour).
# [5] = test system: anaesthetized dogs with closed thorax; test: Erectile function in anaesthetized dogs with closed thorax (pressure in corpus cavernosum rigidum); assay type: in vivo, dog; conditions: 1 mg of substance/1 kg of body weight i.d.; erection initiated by stimulation of the nervus pelvinus
# Description: as §1
# (§2) Measurements of Erectile Function in Anaesthetized Dogs with Closed Thorax
# Erections of various extent were initiated by stimulation variation of the nervus pelvinus. The pressure in the corpus cavernosum rigidum [CCR] was measured.
# [6] = test system: normotensive Wistar rats; test: Telemetric measurements of blood pressure and heart rate over 24 hours in normotensive Wistar rats; assay type: in vivo, rat; conditions: 30, 100 and 300 mg/kg p.o.; telemetry over 24 hours
# [7] = test system: anaesthetized dogs with closed thorax; test: Blood pressure and heart rate measured at the same time in anaesthetized dogs with closed thorax; assay type: in vivo, dog; conditions: 1 mg/kg i.d.
# Description: as §1, §2
# At the same time, the blood pressure and heart rate were measured.
# [8] = "in this dose" (100 mg of substance/1 kg of body weight) i.d.
SMILES,blood pressure [1],heart rate [1],blood pressure [2],"blood pressure [3, 8]","heart rate [3, 8]",changes in blood pressure and heart rate with simultaneous administration of nitrate [4],stimulation of erection (pressure in the corpus cavernosum rigidum) [5],blood pressure [6],heart rate [6],haemodynamic parameters compared with sildenafil ([3]; 1 mg of substance/1 kg of body weight i.d.),cardiovascular side effects (reduction in blood pressure with reflex increase in heart rate) ([3]; i.d.),dose from which effects on the blood pressure and heart rate are measurable ([3]; i.d.),effect on haemodynamic parameters (blood pressure and heart rate) [7]
"CCCc1nn(C)c2c(=O)[nH]c(-c3cc(S(=O)(=O)N4CCN(C)CC4)ccc3OCC)nc12 [sildenafil, reference compound]",dose-dependent drop,increase,significant dose-dependent reduction,reduction,increase,significantly increased,Corresponding results,significant dose-dependent reduction,increase,,,,
"COc1ccc(CNc2nc(C3CCC(C(=O)O)CC3)nc3sc4ccccc4c23)cc1Cl.NCCO (stereo not drawn) [EMD 221829, trans-4-[4-(3-chloro-4-methoxybenzylamino)benzo[4,5]-thieno[2,3-d]pyrimidin-2-yl]cyclohexanecarboxylic acid, ethanolamine salt]",no change,no change,no change,,,no changes,stimulates submaximal erection,no changes,no changes,clear difference,no cardiovascular side effects,≥ 100 mg of substance/1 kg of body weight,no effect
